Measurements: PubChem BioAssay AID1919002 (Molecular Pharmacology Branch, DTP, NCI, 2023)
“And” between values parts separate entries of the source, which are not always exact repeats. Equal entries are not always repeated.

Tested on: 743489-274-T-PDC complex spheroid growth
Assay: Anticancer human tumor 743489-274-T-PDC patient-derived renal cell carcinoma cell line growth inhibition [AhR]
Details: for viability, T/C: stronger effect = lower value
Excerpt: Multicellular complex tumor spheroid response to aryl hydrocarbon receptor antagonists in combination with a variety of drugs and investigational agents in selected tumor cell lines
The current study was undertaken to assess response to aryl hydrocarbon receptor antagonists in combination with standard-of-care drugs and investigational agents in solid tumor complex spheroid models. Complex spheroids include a stromal component modeled by human endothelial cells (HUVEC) and fibroblasts modeled by human mesenchymal stem cells (MSCs). The concentration ranges selected for each drug and investigational agent were based upon clinically achievable concentrations if the clinical Cmax of the agent was known.
Compounds. The drugs and investigational agents: BAY 2416964 (NSC825713), GNF351 (NSC835774), CH-223191 (NSC835775), CPI-455 (NSC825282), aza-TdCyd (NSC777586), decitabine (NSC127716), belinostat (NSC758774), entinostat (NSC756642), pevonedistat (NSC761192), tazemetostat (NSC777109), talazoparib (NSC765396), olaparib (NSC753686), selinexor (NSC780203), nedisertib (M3814, NSC802822), bortezomib (NSC756655), venetoclax (NSC766270), doxorubicin (NSC123127), elimusertib (BAY189344, NSC800525), ceralasertib (AZD6738, NSC777638), TAK-243 (NSC785004), alisertib (NSC759677), etoposide (NSC141540), topotecan (NSC609699), eribulin (NSC707389), gemcitabine (NSC613327), carboplatin (NSC241240), cisplatin (NSC119875), and SN-38 (NSC673596) were obtained from the National Cancer Institute (NCI) Developmental Therapeutics Program Chemical Repository (32). The FDA-approved anticancer drug set is available from the Developmental Therapeutics Program at https://dtp.cancer.gov/organization/dscb/obtaining/available plates.htm. […] The stock solutions were prepared in dimethyl sulfoxide (DMSO, Sigma-Aldrich, St. Louis, MO, cat. D2650), except for the platinum compounds which were prepared in saline (Quality Biological, Gaithersburg, MD, cat. 114-055-101), at 800-fold the tested concentration and stored at -70 degrees C prior to their use. All drugs and investigational agents were tested over a range starting from a high concentration at or near the clinical Cmax and decreasing in half-log increments. If the clinical Cmax for an agent had not been determined, the highest concentration tested was 10 microM (Table 1).
Cell Culture. All cells were maintained in an incubator at 37 degrees C and 5% CO2 with 95% humidity. The PDC lines were cultured according to standard operating procedures established by the NCI PDMR (https://pdmr.cancer.gov). Briefly, all PDCs were thawed and cultured in Matrigel-coated flasks prepared with a working solution of 1X Ham's F-12 nutrient mix, without supplementation (Invitrogen, Waltham, MA, cat. 11765054), 100 U/mL penicillin-streptomycin (Invitrogen, cat. 15140122), and 2.5% Matrigel (Corning Inc., Corning, NY, cat. 354248) for the first three passages. All PDCs were cultured in complete DMEM/F-12 media containing advanced DMEM/F-12 (Invitrogen, cat. 12634028), 4.9% defined fetal bovine serum, heat inactivated (HyClone Laboratories Inc., Logan, UT, cat. SH30070.03HI), 389 ng/mL hydrocortisone (Sigma-Aldrich, cat. H4001), 9.7 ng/mL human EGF recombinant protein (Invitrogen, cat. PHG0313), 23.4 microg/mL adenine (Sigma-Aldrich, cat. A2786), 97.3 U/mL penicillin-streptomycin (Invitrogen, cat. 15140122), 1.9 mM L-glutamine (Invitrogen, cat. 25030081), and 9.7 microM Y-27632 dihydrochloride (Tocris Bioscience, Bristol, United Kingdom, cat. 1254). The PDCs were cultured in complete DMEM/F12 media without 10 microM Y-27632 dihydrochloride for at least two passages prior to the screen. The established cell lines NCI-H1341 and […] were cultured in DMEM/F-12, HEPES (Invitrogen, cat. 11330032), 5% defined fetal bovine serum (HyClone Laboratories Inc., cat. SH30070.03), ITS premix universal culture supplement [insulin (5 microg/mL), transferrin (5 microg/mL), and selenious acid (5 ng/mL)] […]

[1] = curve of first compound, second compound 0.1 µM
[2] = curve of first compound, second compound 0.316 µM
[3] = curve of first compound, second compound 1 µM
[4] = curve of first compound, second compound 3.16 µM
[5] = curve of first compound, second compound 10 µM
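Note: spheroids exposed to agents for 7 days before readout.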
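Throughout, for viability, T/C: 100% = DMSO vehicle control wells.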

With CCc1c2c(nc3ccc(O)cc13)-c1cc3c(c(=O)n1C2)COC(=O)[C@]3(O)CC + Cc1ccccc1N=Nc1ccc(NC(=O)c2ccnn2C)c(C)c1 the IC50 [1] was > 300 nM, the IC50 [2] was > 300 nM and the IC50 [3] was 238 nM. For the same molecule, the IC50 [4] was > 300 nM, the IC50 [5] was 86.2 nM and the viability, T/C (second compound 0.1 µM, first compound 0.000949 µM) was 79.7%. For the same molecule, the viability, T/C (second compound 0.1 µM, first compound 0.003 µM) was 94.1%, the viability, T/C (second compound 0.1 µM, first compound 0.00949 µM) was 89.5% and the viability, T/C (second compound 0.1 µM, first compound 0.03 µM) was 76.1%. The viability, T/C (second compound 0.1 µM, first compound 0.0949 µM) was 59.2%, the viability, T/C (second compound 0.1 µM, first compound 0.3 µM) was 55.1% and the viability, T/C (second compound 0.316 µM, first compound 0.000949 µM) was 83.4%. It also gave a viability, T/C (second compound 0.316 µM, first compound 0.003 µM) of 89.2%, a viability, T/C (second compound 0.316 µM, first compound 0.00949 µM) of 94.8% and a viability, T/C (second compound 0.316 µM, first compound 0.03 µM) of 71.2%. It also gave a viability, T/C (second compound 0.316 µM, first compound 0.0949 µM) of 54.9%, a viability, T/C (second compound 0.316 µM, first compound 0.3 µM) of 50% and a viability, T/C (second compound 1 µM, first compound 0.000949 µM) of 90.2%. For the same molecule, the viability, T/C (second compound 1 µM, first compound 0.003 µM) was 93.2%, the viability, T/C (second compound 1 µM, first compound 0.00949 µM) was 79.6% and the viability, T/C (second compound 1 µM, first compound 0.03 µM) was 72.1%. It also gave a viability, T/C (second compound 1 µM, first compound 0.0949 µM) of 60%, a viability, T/C (second compound 1 µM, first compound 0.3 µM) of 47.3% and a viability, T/C (second compound 3.16 µM, first compound 0.000949 µM) of 85.1%. It also gave a viability, T/C (second compound 3.16 µM, first compound 0.003 µM) of 88.9%, a viability, T/C (second compound 3.16 µM, first compound 0.00949 µM) of 80.7% and a viability, T/C (second compound 3.16 µM, first compound 0.03 µM) of 62.8%. The viability, T/C (second compound 3.16 µM, first compound 0.0949 µM) was 57.8%, the viability, T/C (second compound 3.16 µM, first compound 0.3 µM) was 50.2% and the viability, T/C (second compound 10 µM, first compound 0.000949 µM) was 85.4%. For the same molecule, the viability, T/C (second compound 10 µM, first compound 0.003 µM) was 84.7%, the viability, T/C (second compound 10 µM, first compound 0.00949 µM) was 76.8% and the viability, T/C (second compound 10 µM, first compound 0.03 µM) was 60%. It also gave a viability, T/C (second compound 10 µM, first compound 0.0949 µM) of 50.2% and a viability, T/C (second compound 10 µM, first compound 0.3 µM) of 44.7%.

CC1(C)CCC(CN2CCN(c3ccc(C(=O)NS(=O)(=O)c4ccc(NCC5CCOCC5)c([N+](=O)[O-])c4)c(Oc4cnc5[nH]ccc5c4)c3)CC2)=C(c2ccc(Cl)cc2)C1 + Cc1ccccc1N=Nc1ccc(NC(=O)c2ccnn2C)c(C)c1 was tested, and the IC50 [1] was > 10000 nM, the IC50 [2] was > 10000 nM and the IC50 [3] was > 10000 nM. For the same molecule, the IC50 [4] was > 10000 nM, the IC50 [5] was > 10000 nM and the viability, T/C (second compound 0.1 µM, first compound 0.0316 µM) was 91.9%. The viability, T/C (second compound 0.1 µM, first compound 0.1 µM) was 92.9%, the viability, T/C (second compound 0.1 µM, first compound 0.316 µM) was 93.9% and the viability, T/C (second compound 0.1 µM, first compound 1 µM) was 94.7%. The viability, T/C (second compound 0.1 µM, first compound 3.16 µM) was 96.1%, the viability, T/C (second compound 0.1 µM, first compound 10 µM) was 94.3% and the viability, T/C (second compound 0.316 µM, first compound 0.0316 µM) was 95.7%. For the same molecule, the viability, T/C (second compound 0.316 µM, first compound 0.1 µM) was 94.9%, the viability, T/C (second compound 0.316 µM, first compound 0.316 µM) was 97.5% and the viability, T/C (second compound 0.316 µM, first compound 1 µM) was 81.8%. For the same molecule, the viability, T/C (second compound 0.316 µM, first compound 3.16 µM) was 87.5%, the viability, T/C (second compound 0.316 µM, first compound 10 µM) was 81.6% and the viability, T/C (second compound 1 µM, first compound 0.0316 µM) was 89.8%. It also gave a viability, T/C (second compound 1 µM, first compound 0.1 µM) of 88.4%, a viability, T/C (second compound 1 µM, first compound 0.316 µM) of 99.6% and a viability, T/C (second compound 1 µM, first compound 1 µM) of 99.2%. The viability, T/C (second compound 1 µM, first compound 3.16 µM) was 89.1%, the viability, T/C (second compound 1 µM, first compound 10 µM) was 78.3% and the viability, T/C (second compound 3.16 µM, first compound 0.0316 µM) was 90.1%. The viability, T/C (second compound 3.16 µM, first compound 0.1 µM) was 91%, the viability, T/C (second compound 3.16 µM, first compound 0.316 µM) was 93.8% and the viability, T/C (second compound 3.16 µM, first compound 1 µM) was 85.6%. It also gave a viability, T/C (second compound 3.16 µM, first compound 3.16 µM) of 75.5%, a viability, T/C (second compound 3.16 µM, first compound 10 µM) of 81.8% and a viability, T/C (second compound 10 µM, first compound 0.0316 µM) of 84.8%. For the same molecule, the viability, T/C (second compound 10 µM, first compound 0.1 µM) was 85.2%, the viability, T/C (second compound 10 µM, first compound 0.316 µM) was 90.1% and the viability, T/C (second compound 10 µM, first compound 1 µM) was 80%. For the same molecule, the viability, T/C (second compound 10 µM, first compound 3.16 µM) was 104% and the viability, T/C (second compound 10 µM, first compound 10 µM) was 82.1%.

CC1COCCN1c1cc(C2(S(C)(=N)=O)CC2)nc(-c2ccnc3[nH]ccc23)n1 (configuration not stated) was tested, and the viability, T/C (compound 0.0316 µM) was 101% (2×) and 98.1%, the viability, T/C (compound 0.1 µM) was 109% and 103% and 97.3% and the viability, T/C (compound 0.316 µM) was 101% and 110% and 96.7%. The viability, T/C (compound 1 µM) was 94.8% and 103% and 108%, the viability, T/C (compound 3.16 µM) was 98.2% and 102% and 104% and the viability, T/C (compound 10 µM) was 99.1% and 92% and 114%. The IC50 (curve of compound) was > 10000 nM.
